Assay [1] has as its system T-cell. Briefly: CD25 cell surface staining on T-cells co-stimulated with anti-CD3 and anti-CD28 antibody (Biological Example 2). As to conditions: Homo sapiens, T-cell, fold change over baseline, primary human total T-cells, read-out: CD25 staining Anti-CD3/Anti-CD28 stimulation; for fold induction at 0.3 µM: 0.3 μM Cbl-b inhibitor; for fold induction at 1 µM: 1 μM Cbl-b inhibitor; for fold induction at 4 µM: 4 μM Cbl-b inhibitor. Format: cell-based, human. In outline:
(§1)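 T-cells were stimulated with anti-CD3 antibody alone or with anti-CD28 antibody, in the presence or absence of Cbl-b inhibitor. IL-2 secretion or CD25 surface staining was measured, and values expressed as fold over the uninhibited baseline […].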

The subject of assay [2] is T-cell. Briefly: IL-2 secretion from T-cells co-stimulated with anti-CD3 and anti-CD28 antibody (Biological Example 2). As to conditions: Homo sapiens, T-cell, fold change over baseline, primary human total T-cells, read-out: IL-2 secretion Anti-CD3/Anti-CD28 stimulation; for fold induction at 0.3 µM: 0.3 μM Cbl-b inhibitor; for fold induction at 1 µM: 1 μM Cbl-b inhibitor; for fold induction at 4 µM: 4 μM Cbl-b inhibitor. Format: cell-based, human. The gist of the method: as §1

Assay [3] concerns the target T1, Cbl-b (Homo sapiens, UniProt Q13191). Briefly: Cbl-b activity assay (Cbl-b inhibition assay), TR-FRET of Cbl-b interaction with UbcH5B-Ub. Format: biochemical. Conditions: assay buffer with 100 mM NaCl, 60 nM Src kinase; read-out: Cbl-b activity IC50. In outline: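 UbcH5B (C85K) conjugated to N-terminally Bodipy-Fluorescein-labeled ubiquitin served as the fluorescent partner. After compound preincubation, Src kinase (60 nM) with 1 mM ATP and 5 mM MgCl2 (final) was added for 1.5 h, followed by a further 1 h incubation. Some values were obtained with 50 mM NaCl and 30 nM Src.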

Assay [4] addresses T1, Cbl-b. Briefly: Cbl-b inhibition assay (Cbl-b activity assay, FRET, Biological Example 1; 100 mM NaCl, 60 nM Src kinase). Conditions: upper bound stated in text lists; read-out: IC50 values in the Cbl-b inhibition assay of Biological Example 1. Format: biochemical. The gist of the method: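 N-terminally biotinylated Avi-tagged Cbl-b was mixed with Src kinase, UbcH5B covalently conjugated to Bodipy-fluorescein ubiquitin, and streptavidin-terbium. Src phosphorylation lets Cbl-b bind UbcH5B-Ub, giving terbium-fluorescein FRET; inhibition is read as loss of FRET signal.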

The next assay addresses Cbl-b (residues 36-427) (Homo sapiens, UniProt Q13191). Briefly: Cbl-b binding assay (SPR, Biacore T200). As to conditions: 20° C., 1:1 binding model. The gist of the method: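 Steps: capture protein on NeutrAvidin surface; inject compound dilutions (8 or 10 points from 100 or 50 μM) 50 s; allow 90-180 s dissociation; regenerate 20 s with 0.3 M NaCl. Runs at 20° C in HEPES pH 7.5/100 mM NaCl/2% DMSO; 1:1 fitting.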

The structures appear in SMILES notation.

Chain of Cbl-b (residues 36-427) (Q13191 36-427): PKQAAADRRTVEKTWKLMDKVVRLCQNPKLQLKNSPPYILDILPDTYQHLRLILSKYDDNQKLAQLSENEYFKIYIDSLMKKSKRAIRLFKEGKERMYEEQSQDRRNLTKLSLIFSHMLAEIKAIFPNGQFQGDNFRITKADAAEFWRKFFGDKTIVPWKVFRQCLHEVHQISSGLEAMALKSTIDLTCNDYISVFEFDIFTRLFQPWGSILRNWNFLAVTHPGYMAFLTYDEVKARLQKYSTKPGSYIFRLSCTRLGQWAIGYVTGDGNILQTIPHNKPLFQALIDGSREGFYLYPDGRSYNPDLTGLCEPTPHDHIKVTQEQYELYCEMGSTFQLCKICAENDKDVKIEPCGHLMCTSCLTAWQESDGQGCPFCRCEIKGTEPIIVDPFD
T1 sequence (Q13191 36-427): as above

`C[C@H](Cc1nncn1C)c1cccc(NC(=O)c2cccc(C(C)(C)C)n2)c1` [Compound 321, (R)-6-(Tert-butyl)-N-(3-(1-(4-methyl-4H-1,2,4-triazol-3-yl)propan-2-yl)phenyl)picolinamide]: the fold induction at 0.3 µM in the assay on T-cell [1] lay in the range of 1.01 to 1.3; with T-cell [2], 1.01 to 2.5. Further, the fold induction at 1 µM lay in the range of 1.01 to 1.3 in the assay on T-cell [1] and 2.51 to 5 in the assay on T-cell [2]. Besides, the fold induction at 4 µM in the assay on T-cell [1] is 1.01 to 1.3; in the assay with T-cell [2] it was 2.51 to 5. Besides, the IC50 at Cbl-b [3] was less than 0.1 µM; on Cbl-b [4], no more than 0.1 µM. The equilibrium dissociation constant (Kd) on Cbl-b (residues 36-427) lay within 0.1 to 0.3 µM.
Take `CC1CCc2c1n[nH]c2C(=O)Nc1cccc([C@H](C)Cc2nncn2C)c1` (stereo partly drawn) [Compound 323, 6-Methyl-N-(3-((R)-1-(4-methyl-4H-1,2,4-triazol-3-yl)propan-2-yl)phenyl)-2,4,5,6-tetrahydrocyclopenta[c]pyrazole-3-carboxamide]: the results for the fold induction at 0.3 µM with T-cell [1] and in the assay with T-cell [2] were less than 1 and 1.01 to 2.5, respectively. The values for the fold induction at 1 µM in the assay on T-cell [1] and in the assay on T-cell [2] were less than 1 and 2.51 to 5, respectively. Also, the fold induction at 4 µM was 1.01 to 1.3 with T-cell [1] and 5 to 7.5 with T-cell [2]. Besides, the values for the IC50 at Cbl-b [3] and at Cbl-b [4] were 0.1 to 0.3 µM and no more than 0.3 µM, respectively. At Cbl-b (residues 36-427), this compound displayed an equilibrium dissociation constant (Kd) of 0.1 to 0.3 µM.
On to `Cc1cc(C(=O)Nc2cccc([C@@H](C)Cc3nncn3C)c2)nc(C2CC2)n1` [Compound 325, (S)-2-Cyclopropyl-6-methyl-N-(3-(1-(4-methyl-4H-1,2,4-triazol-3-yl)propan-2-yl)phenyl)pyrimidine-4-carboxamide], for which, in the assay on T-cell [1], the fold induction at 0.3 µM was 1.01 to 1.3, the fold induction at 1 µM lay within 1.01 to 1.3 and the fold induction at 4 µM is 1.01 to 1.3. In the assay on T-cell [2], the fold induction at 0.3 µM was 1.01 to 2.5, the fold induction at 1 µM lay in the range of 1.01 to 2.5 and the fold induction at 4 µM was in the range of 2.51 to 5. Besides, the IC50 on Cbl-b [3] was 0.1 to 0.3 µM. Moreover, on Cbl-b [4], the IC50 is no more than 0.3 µM. Besides, the dissociation constant (Kd) at Cbl-b (residues 36-427) fell in the range of 0.301 to 1 µM.
On to `Cc1cc(C(=O)Nc2cccc([C@H](C)Cc3nocc3C)c2)nc(C2CC2)n1` [Compound 330, (R)-2-cyclopropyl-6-methyl-N-(3-(1-(4-methylisoxazol-3-yl)propan-2-yl)phenyl)pyrimidine-4-carboxamide], for which the figures for the fold induction at 0.3 µM in the assay on T-cell [1] and in the assay with T-cell [2] were 1.01 to 1.3 and 1.01 to 2.5, respectively. In addition, the fold induction at 1 µM lay in the range of 1.01 to 1.3 in the assay with T-cell [1] and 2.51 to 5 in the assay on T-cell [2]. Further, the fold induction at 4 µM in the assay on T-cell [1] is 1.01 to 1.3; with T-cell [2] it was 5 to 7.5. Also, the concentration for half-maximal inhibition (IC50) on Cbl-b [3] was less than 0.1 µM; at Cbl-b [4] it was no more than 0.1 µM. Besides, the Kd at Cbl-b (residues 36-427) fell in the range of 0.301 to 1 µM.
With `Cn1cnnc1CC1(c2cccc(NC(=O)c3nc4c(C(F)(F)F)cccc4[nH]3)c2)COC1` [Compound 335, N-(3-{3-[(4-methyl-1,2,4-triazol-3-yl)methyl]oxetan-3-yl}phenyl)-4-(trifluoromethyl)-1H-1,3-benzodiazole-2-carboxamide], in the assay with T-cell [1], the fold induction at 0.3 µM fell in the range of 1.31 to 1.5, the fold induction at 1 µM was in the range of 1.51 to 1.75 and the fold induction at 4 µM lay in the range of 1.51 to 1.75. Moreover, in the assay with T-cell [2], the fold induction at 0.3 µM fell in the range of 2.51 to 5, the fold induction at 1 µM fell in the range of 5 to 7.5 and the fold induction at 4 µM was greater than 7.5. The half-maximal inhibitory concentration (IC50) on Cbl-b [3] is less than 0.1 µM. Besides, on Cbl-b [4], the IC50 is no more than 0.1 µM. The dissociation constant (Kd) on Cbl-b (residues 36-427) is less than 0.1 µM.
As to `Cc1cc(C(=O)Nc2cccc(C3(Cc4nncn4C)COC3)c2)nc(C2CC2)n1` [Compound 336, 2-cyclopropyl-6-methyl-N-(3-(3-((4-methyl-4H-1,2,4-triazol-3-yl)methyl)oxetan-3-yl)phenyl)pyrimidine-4-carboxamide], in the assay with T-cell [1], the fold induction at 0.3 µM fell in the range of 1.31 to 1.5, the fold induction at 1 µM is greater than 1.76 and the fold induction at 4 µM lay within 1.51 to 1.75. For the same compound, in the assay on T-cell [2], the fold induction at 0.3 µM lay within 5 to 7.5, the fold induction at 1 µM is greater than 7.5 and the fold induction at 4 µM was greater than 7.5. Besides, the half-inhibitory concentration (IC50) at Cbl-b [3] is less than 0.1 µM. The IC50 on Cbl-b [4] was no more than 0.1 µM. At Cbl-b (residues 36-427), the dissociation constant (Kd) is less than 0.1 µM.
In the case of `C[C@H](Cc1nncn1C)c1cc(NC2COC2)nc(N2Cc3c(cccc3C(F)(F)F)C2=O)c1` [Compound 352, 2-{4-[(2R)-1-(4-methyl-4H-1,2,4-triazol-3-yl)propan-2-yl]-6-[(oxetan-3-yl)amino]pyridin-2-yl}-4-(trifluoromethyl)-2,3-dihydro-1H-isoindol-1-one], in the assay on T-cell [1], the fold induction at 0.3 µM was in the range of 1.01 to 1.3, the fold induction at 1 µM lay in the range of 1.01 to 1.3 and the fold induction at 4 µM was in the range of 1.31 to 1.5. For the same compound, in the assay on T-cell [2], the fold induction at 0.3 µM lay in the range of 1.01 to 2.5, the fold induction at 1 µM was in the range of 1.01 to 2.5 and the fold induction at 4 µM lay in the range of 5 to 7.5. Besides, the IC50 at Cbl-b [3] was less than 0.1 µM. Besides, at Cbl-b [4], the IC50 is no more than 0.1 µM. In addition, the Kd on Cbl-b (residues 36-427) lay within 0.1 to 0.3 µM.
For the compound `CC(C)Nc1cc([C@H](C)Cc2nncn2C)cc(N2Cc3c(cccc3C(F)(F)F)C2=O)n1` [Compound 353, 2-{4-[(2R)-1-(4-methyl-4H-1,2,4-triazol-3-yl)propan-2-yl]-6-[(propan-2-yl)amino]pyridin-2-yl}-4-(trifluoromethyl)-2,3-dihydro-1H-isoindol-1-one], the results for the fold induction at 0.3 µM with T-cell [1] and with T-cell [2] were 1.01 to 1.3 and 1.01 to 2.5, respectively. For the same compound, the fold induction at 1 µM with T-cell [1] was 1.01 to 1.3; with T-cell [2], 2.51 to 5. For the same compound, the figures for the fold induction at 4 µM in the assay with T-cell [1] and in the assay with T-cell [2] were 1.31 to 1.5 and greater than 7.5, respectively. The IC50 is less than 0.1 µM on Cbl-b [3] and no more than 0.1 µM on Cbl-b [4]. The dissociation constant (Kd) on Cbl-b (residues 36-427) was less than 0.1 µM.
For `CCOc1cc([C@H](C)Cc2nncn2C)cc(N2Cc3c(cccc3C(F)(F)F)C2=O)n1` [Compound 358, (R)-2-(6-ethoxy-4-(1-(4-methyl-4H-1,2,4-triazol-3-yl)propan-2-yl)pyridin-2-yl)-4-(trifluoromethyl)isoindolin-1-one], in the assay with T-cell [1], the fold induction at 0.3 µM is 1.01 to 1.3, the fold induction at 1 µM is 1.31 to 1.5 and the fold induction at 4 µM is 1.31 to 1.5. Moreover, in the assay on T-cell [2], the fold induction at 0.3 µM is 2.51 to 5, the fold induction at 1 µM was 5 to 7.5 and the fold induction at 4 µM is greater than 7.5. Further, at Cbl-b [3], the IC50 is less than 0.1 µM. For the same compound, the IC50 on Cbl-b [4] was no more than 0.1 µM. Moreover, the Kd on Cbl-b (residues 36-427) was less than 0.1 µM.
With `CCNc1cc([C@H](C)Cc2nncn2C)cc(N2Cc3c(cccc3C(F)(F)F)C2=O)n1` [Compound 360, (R)-2-(6-(ethylamino)-4-(1-(4-methyl-4H-1,2,4-triazol-3-yl)propan-2-yl)pyridin-2-yl)-4-(trifluoromethyl)isoindolin-1-one], in the assay with T-cell [1], the fold induction at 0.3 µM fell in the range of 1.31 to 1.5, the fold induction at 1 µM lay in the range of 1.51 to 1.75 and the fold induction at 4 µM lay in the range of 1.51 to 1.75. Moreover, in the assay with T-cell [2], the fold induction at 0.3 µM was in the range of 2.51 to 5, the fold induction at 1 µM was greater than 7.5 and the fold induction at 4 µM is greater than 7.5. Besides, the half-inhibitory concentration (IC50) at Cbl-b [3] was less than 0.1 µM. The IC50 at Cbl-b [4] was no more than 0.1 µM. The Kd at Cbl-b (residues 36-427) is less than 0.1 µM.
On to `CNc1cc([C@H](C)Cc2nncn2C)cc(N2Cc3c(cccc3C(F)(F)F)C2=O)n1` [Compound 363, (R)-2-(4-(1-(4-methyl-4H-1,2,4-triazol-3-yl)propan-2-yl)-6-(methylamino)pyridin-2-yl)-4-(trifluoromethyl)isoindolin-1-one], for which the fold induction at 0.3 µM in the assay on T-cell [1] fell in the range of 1.01 to 1.3; with T-cell [2], 1.01 to 2.5. Further, the values for the fold induction at 1 µM in the assay with T-cell [1] and in the assay with T-cell [2] were 1.01 to 1.3 and 1.01 to 2.5, respectively. Further, the fold induction at 4 µM was 1.31 to 1.5 in the assay with T-cell [1] and 5 to 7.5 in the assay on T-cell [2]. In addition, the IC50 at Cbl-b [3] was less than 0.1 µM; at Cbl-b [4], no more than 0.1 µM. On Cbl-b (residues 36-427), the dissociation constant Kd is less than 0.1 µM.

Values taken from patent publication US20220324835A1 (Nurix Therapeutics, Inc., priority 2018, published 2022).
